In PubChem BioAssay (NCI) one finds TGI data, which are given here for 9 compounds.

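Interpolation was linear, between the two tested concentrations surrounding the appropriate level; five concentrations were tested over 48 hours in 96-well plates. TGI is the concentration that stops growth completely.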 Where a SMILES comes first, the peptide text is derived from it. The star is where a group is joined. X36 = O=C(c1ccc(-c2ccc(Cl)cc2Cl)o1)*

What all share (experiment): NCI anticancer screen, dose series, 48 h
The test system of experiment [1] is HCC-2998 colon.
Experiment [2] relates to ACHN renal.
Experiment [3] has as its system MOLT-4 leukemia.
For experiment [4], the system named is COLO 205 colon.
The subject of experiment [5] is HCT-116 colon.
Experiment [6] relates to 786-0 renal.
Experiment [7] relates to SK-MEL-2 melanoma.
Experiment [8] has as its system HOP-92 NSCLC.
Experiment [9] concerns MDA-N.
Experiment [10] deals with OVCAR-3 ovarian.
In experiment [11] the test system is M14 melanoma.
Experiment [12] relates to HT29 colon.

Consider `CC1=NN2C(=N)/C(=C/c3ccco3)C(=O)N=C2S1`, for which the TGI in [1], in [2], in [3], in experiment [4], in experiment [5] and in [6] was greater than 100 µM in each case. Besides, the TGI in experiment [7], in [8], in experiment [9], in experiment [10], in experiment [11] and in experiment [12] was greater than 100 µM each time.
Consider `CCC(C)C(NC(=O)CNC(=O)C(Cc1ccccc1)NC(=O)C1CCCN1C(=O)c1ccc(-c2ccc(Cl)cc2Cl)o1)C(=O)OC` (stereo not drawn) (X36-PFGI-OMe; configuration not given here), for which the TGI is 64 µM in experiment [1]; greater than 100 µM in experiment [2]; greater than 100 µM in [3]; greater than 100 µM in experiment [4]; greater than 100 µM in [5]; greater than 100 µM in [6]. In addition, the TGI in [7] was greater than 100 µM; in experiment [8] it was 41.9 µM; in experiment [9], greater than 100 µM; in experiment [10], greater than 100 µM; in experiment [11], greater than 100 µM; in [12], greater than 100 µM.
For `N#Cc1nc(-c2cccs2)oc1N`, the TGI in experiment [1], in [2], in [3], in [4], in [5] and in experiment [6] was greater than 100 µM each time. In addition, the TGI in experiment [7], in experiment [8], in experiment [9], in experiment [10], in [11] and in experiment [12] was greater than 100 µM in each case.
On to `O=C1CCCCC(=O)OC2(CCCCC2=O)CC1` (stereo not drawn), for which the TGI in experiment [1], in experiment [2], in experiment [3], in [4], in experiment [5] and in [6] was greater than 100 µM each time. For the same compound, the TGI in [7], in experiment [8], in [9], in [10], in [11] and in [12] was greater than 100 µM each time.
For the compound `O=c1oc2ccccc2c(Nc2ccc3c(c2)Oc2ccccc2O3)c1[N+](=O)[O-]`, the TGI is 62.4 µM in experiment [1]; 32.7 µM in experiment [2]; greater than 100 µM in [3]; greater than 100 µM in [4]; greater than 100 µM in [5]; 38.8 µM in experiment [6]. Besides, the TGI is 34.5 µM in [7]; 35.2 µM in [8]; greater than 100 µM in experiment [9]; 64.2 µM in experiment [10]; greater than 100 µM in [11]; greater than 100 µM in experiment [12].
For the compound `CC(=O)O[C@H]1C#C/C=C\C#CC[C@@H]2C(=O)N[C@@H]12`, the TGI is greater than 100 µM in [1]; 52.2 µM in [2]; greater than 100 µM in experiment [3]; greater than 100 µM in experiment [4]; greater than 100 µM in experiment [5]; greater than 88.3 µM in [6]. In addition, the TGI was greater than 100 µM in [7]; 98.9 µM in experiment [8]; greater than 100 µM in experiment [9]; greater than 100 µM in experiment [10]; greater than 100 µM in [11]; greater than 100 µM in experiment [12].
Take `CCOP(=O)(OCC)c1c(C(=O)OC)cc(=O)[nH]c1-c1ccc(C)cc1`: the TGI in [1] is 33.5 µM; in [2], 9.45 µM; in experiment [3], 20.6 µM; in [4], 15.2 µM; in experiment [5], greater than 51.1 µM; in experiment [6] it was greater than 53.4 µM. In addition, the TGI in experiment [7] is 32.4 µM; in experiment [8], 12.3 µM; in experiment [9] it was greater than 61.1 µM; in experiment [10] it was 25.2 µM; in experiment [11], 27.8 µM; in experiment [12] it was 42.1 µM.
With `Nc1c(Cl)ncnc1N[C@@H]1C[C@H]1CO`, the TGI in experiment [1], in experiment [2], in experiment [3], in experiment [4], in experiment [5] and in [6] was greater than 100 µM each time. For the same compound, the TGI in experiment [7], in experiment [8], in experiment [9], in experiment [10], in experiment [11] and in experiment [12] was greater than 100 µM each time.
Take `N#C/C(=C\n1ccc(=O)[nH]c1=S)C(N)=O`: the TGI in [1], in experiment [2], in experiment [3], in [4], in experiment [5] and in experiment [6] was greater than 100 µM throughout. For the same compound, the TGI was greater than 100 µM in experiment [7]; greater than 100 µM in experiment [8]; greater than 100 µM in [9]; 0.673 µM in experiment [10]; greater than 100 µM in [11]; greater than 100 µM in experiment [12].
